Experiment [1] has as its system rat aorta. The experiment can be described thus: Rat Aorta Protocol: relaxation of phenylephrine-contracted rat aorta rings (endothelium removed). It is filed as cell-based. The protocol: Such vasorelaxation appears to be related to inhibition of the phosphodiesterase (PDE) isozyme related to the cardiac sarcoplasmic reticulum. Thus, relaxation of rat aorta can be used as a screen to eliminate compounds which are not PDE inhibitors prior to testing for actual inotropic activity.
Rings of rat aorta (endothelium removed) were prepared for the measurement of isometric force in isolated tissue organ chambers essentially as previously described by T. J. Rimele et al in the Journal of Pharmacol. Exo. Ther. 245:102-111 (1988). The experimental portion of the protocol began with the addition of methylene blue (1×10^-5 M) and propranolol (1×10^-6 M) to each organ chamber to inhibit basal cGMP accumulation due to soluble guanylate cyclase and beta-adrenoceptors.Phenylephrine (1×10^-7 M) was then added and the rings were allowed to obtain a stable contractile response after which time, the test compound was added in a cumulative fashion. The relaxation induced by each concentration of the test compound was expressed as a percentage of the maximal relaxation produced by nitroprusside (1×10^-4 M). The results were graphically represented as a plot of the percentage relaxation vs. the negative log of the molar concentration of the test compound. […]

Experiment [2] concerns barbiturate-anesthetized dogs. Briefly: Anesthetized Dog: beta-blocking effect (inhibition of the dP/dt response to isoproterenol). It is filed as in vivo. The following applies: Canis lupus familiaris, iv, infusion, isoproterenol 0.1-0.5 μg/kg i.v. The protocol:
(§1) Inotropic effects were evaluated in barbiturate-anesthetized dogs by differentiating left intraventricular pressure. This procedure was carried out essentially as described by M. K. Grizzel et al in the FASEB Journal, Vol. 3, page 1039, abstract 4728 (1989). Purpose breed mongrel dogs (14-20 kg) of either sex were anesthetized with a mixture of sodium pentobarbital (15 mg/kg) and sodium barbital (300 mg/kg) i.v., intubated with a cuffed endotracheal tube and ventilated with a respirator (Harvard Apparatus, model 613, South Natick, Mass.) with room air (22 rpm, 10-12 ml/kg/stroke). […] Cardiac output was determined via thermodilution with a Spectramed computer (Starcom., Oxnard, Calif.) and a 5F Swan Ganz catheter which was inserted into the right jugular vein and positioned in the pulmonary artery. […] A lead II electrocardiogram was measured using subcutaneous electrodes. […] Rectal temperature was monitored and maintained at 37°-38° C. with a heating pad (Baxter Health Care model K20, McGaw Park, Ill.). All variables were recorded using a Gould 3800S physiograph.
(§2) Isoproterenol (0.1-0.5 μg/kg) was injected i.v. into the cephalic vein at 10 min intervals except for when the test drug infusion was begun. […] Inhibition of the isoproterenol responses on contractility (dP/dt), heart rate and diastolic blood pressure were determined at each dose of test compound. […]

Experiment [3] deals with barbiturate-anesthetized dogs. Briefly: Anesthetized Dog: inotropic effect (increase in baseline left ventricular dP/dt). It is filed as in vivo. The protocol: as §1, §2
A further experiment concerns guinea pig left atria. The experiment can be described thus: Guinea Pig Left Atria Test: direct effect on force of atrial contraction. It is filed as cell-based. The following applies: Cavia porcellus, propranolol and phentolamine (1.0 micromolar each) present. The protocol:
This test is carried out as generally described by T. P. Kenakin et al in Journal of Cardiovascular Pharmacology 101, 658-666 (1987) and in the Journal of Pharmacology and Experimental Therapeutics, Vol. 213, 406-413 (1980).
Male Hartley guinea-pigs (300-400 grams) were sacrificed by cervical dislocation or carbon dioxide asphyxiation. The hearts were immediately removed and placed in oxygenated Krebs-Henseleit buffer (composition (millimolar): Na^+ 143, K^+ 5.9, Ca^++ 1.25, Mg^++ 1.2, Cl^- 128, HCO3^- 25, SO4^-- 1.2, H2 PO4^- 1.0, and D-glucose 10). Left atria were dissected away from the remainder of the heart and mounted on holders against platinum punctate electrodes. The mounted atria were placed in tissue baths maintained at 31° C. and oxygenated with 95% 02 -5% CO2 under 1.0 gram resting tension. […] Contractions were detected with a force displacement transducer and recorded on a physiograph. […]
Direct effects of the test compounds on the force of atrial contraction were observed and recorded after addition of the compounds to the tissue bath. […] Responses to the test compounds and forskolin were expressed as a percentage of the maximal response to forskolin. EC50 values for the test compounds were calculated as the concentration of the compound necessary to produce an inotropic response half that of the maximal response produced by the test compound.

The target of a further experiment is T1, Beta-1 adrenoceptor (Rattus norvegicus, UniProt P18090).
T1 construct: rat brain cortices were used as the source of membrane vesicles; from tissue; host or cells: rat brain cortex membranes
T1 sequence (P18090 whole entry): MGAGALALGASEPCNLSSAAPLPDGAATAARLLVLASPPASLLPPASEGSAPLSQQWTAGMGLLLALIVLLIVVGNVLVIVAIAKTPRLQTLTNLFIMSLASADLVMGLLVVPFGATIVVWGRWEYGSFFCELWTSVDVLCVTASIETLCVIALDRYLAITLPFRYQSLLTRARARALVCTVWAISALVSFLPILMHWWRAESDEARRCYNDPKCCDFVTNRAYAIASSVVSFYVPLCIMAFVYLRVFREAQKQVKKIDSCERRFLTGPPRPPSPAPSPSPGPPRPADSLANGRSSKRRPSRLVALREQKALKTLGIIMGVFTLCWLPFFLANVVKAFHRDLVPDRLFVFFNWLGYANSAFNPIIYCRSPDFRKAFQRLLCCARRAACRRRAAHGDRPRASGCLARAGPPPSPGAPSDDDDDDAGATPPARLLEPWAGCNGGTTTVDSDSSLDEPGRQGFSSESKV
Briefly: Beta Adrenoceptor Binding Assays: displacement of [I-125]-Pindolol from rat brain cortical membranes. The following applies: pH 7.6, 22° C., two hr, read-out: pIC50 (negative log of the IC50) (converted). As for the experimental part: Because of its receptor density rat brain cortices were used as the source of membrane vesicles to be used in the receptor binding assays. Freshly excised cortexes were homogenized in 20 volumes (w/v) 50 mM TRIS HCl Buffer (pH 7.5), with a glass/Teflon homogenizer following the procedure previously described by T. J. Rimele in J. Pharmacol Exp. Ther. 239: 1-8, 1986. Beta-1 adrenoceptor binding activity was determined following methods described by M. H. Randall, et al, J. Med. Chem. 20: 1090-1094, 1977, and J. Homberger, et al in Mol. Pharmacol. 20: 453-469, 1981. The incubation mixture consisted of; 26 μl of 50 mM TRIS/HCl, 10 mM MgCl2 pH 7.6 buffer, 25 μl of test drug or 10-6 pindolol to define nonspecific binding, 100 μl of [I-125]-Pindolol (2200Ci/mM) at a final concentration of 10-9, and 100 μl of brain cortical membranes. The mixture was incubated at RT (22 ° C.) for two hr in the dark. The reaction was stopped by filtration of the mixture through buffer soaked glass fiber membranes (GF/B) using an cell harvesting device (Skatron Inc.). The radioactivity in each filter containing the trapped membrane particles was counted with a gamma counter. […] All specific binding values obtained in the presence of test compounds were expressed as the percentage of specific binding displaced by the individual agents. […]

Experiment [4] concerns rat aorta. The following applies: literature, R. F. Kauffman et al., J. Pharmacol. Exp. Ther. 242:864-872 (1987); cited from earlier work.

In the case of `Cc1[nH]c(=O)c(C#N)cc1-c1ccc(OCCCC(=O)NCCNCC(O)COc2ccccc2)cc1` (stereo not shown) [Example 2, 5-{4-[N-[2-(3-Phenoxy-2-hydroxypropylamino)ethyl]carbamoylpropyloxy]phenyl}-6-methyl-2-oxo-1,2-dihydro-3-pyridinecarbonitrile], the Emax at 100 µM in the experiment on rat aorta [1] (Rattus norvegicus, at the highest dose tested (100 micromolar), read-out: maximal response (relaxation as percentage of the maximal relaxation produced by nitroprusside)) was 97%; in the experiment on guinea pig left atria (at 100 micromolar, read-out: maximal response (percentage of the maximal response to forskolin)), 36%. In addition, the IC50 in the experiment with rat aorta [1] (rat aorta rings, endothelium removed, phenylephrine 1×10^-7 M, methylene blue and propranolol present, read-out: IC50 (concentration of test compound which produced a relaxation equivalent to 50% of the maximal relaxation induced by nitroprusside)) is 23 µM; at Beta-1 adrenoceptor, 0.02 µM. The ED50 in experiment [2] came out at 0.055 µmol/kg; in experiment [3] (Canis lupus familiaris, iv, infusion, compared to baseline prior to drug infusion, read-out: inotropic ED50 (50% increase in dP/dt)), 0.04 µmol/kg. Further, the “inotropic effects at higher doses, sensitivity to atenolol” value in experiment [3] (higher doses, atenolol) was “not blocked by atenolol”. For the same compound, the EC50 in the experiment on guinea pig left atria (guinea pig left atria, 31° C., read-out: ED50 (concentration producing an inotropic response half that of the maximal response produced by the test compound)) was found to be 13 µM.
Turning to `CSc1ccc(C(=O)c2[nH]c(=O)[nH]c2C)cc1` [enoximone], the “relaxation of rat aorta” value with rat aorta [4] is recorded as “marked relaxation”.
`Cc1[nH]c(=O)c(C#N)cc1-c1ccncc1` [milrinone]: in the experiment with rat aorta [4], the “relaxation of rat aorta” value is recorded as “marked relaxation”.
